The target in test [1] is PKR(wt) (Homo sapiens, UniProt P30613). Description: Luminescence Biochemical Assay (Kinase Glo Plus), wild type PKR. The conditions noted are these: without FBP; for activation at 1.54 µM: 1.54 μM compound, read-out: AC50 LUM KGP woFBP % Fold@1.54 μM mean; for AC50: read-out: AC50 LUM KGP woFBP AC50 μM gmean; for Emax: read-out: AC50 LUM KGP woFBP MAX % FOLD mean. How it is done:
(§1) In some embodiments, a PKR Activating Compound can have: (1) an AC50 value of less than 0.1 μM (e.g., compounds with AC50 values of “+++” in Table 13), 0.1-1.0 μM (e.g., compounds with AC50 values of “++” in Table 13), or 1.01-40 μM (e.g., compounds with AC50 values of “+” in Table 13); (2) a MAX % Fold of 75%-250%, 250-500%, or 75%-500%; and/or (3) a % Fold@1.54 μM of 75%-250%, 250-500%, or 75%-500%. In some embodiments, a PKR Activating Compound has (1) an AC50 value of less than 1.0 μM; (2) a MAX % Fold of 75%-500%; and/or (3) a % Fold@1.54 μM of 75%-500%.
(§2) The phosphorylation of Adenosine-5′-diphosphate (ADP) by various mutants of PKR was determined by the Kinase Glo Plus Assay (Promega) in the presence or absence of FBP [D-Fructose-1,6-diphosphate; BOC Sciences, CAS: 81028-91-3] as follows. Unless otherwise indicated, all reagents were purchased from Sigma-Aldrich. All reagents were prepared in buffer containing 50 mM Tris-HCl, 100 mM KCl, 5 mM MgCl2, and 0.01% Triton X100, 0.03% BSA, and 1 mM DTT. Enzyme and PEP [Phospho(enol) pyruvic acid] were added at 2× to all wells of an assay-ready plate containing serial dilutions of test compounds or DMSO vehicle. Final enzyme concentrations for PKR(wt), PKR(R510Q), and PKR(G332S) were 0.8 nM, 0.8 nM, and 10 nM respectively. Final PEP concentration was 100 μM. The Enzyme/PEP mixture was incubated with compounds for 30 minutes at RT before the assay was initiated with the addition of 2×ADP [Adenosine-5′-diphosphate] and KinaseGloPlus. Final concentration of ADP was 100 μM. […] For assays containing FBP, that reagent is added at 30 μM upon reaction initiation. Reactions were allowed to progress for 45 minutes at RT until luminescence was recorded by the BMG PHERAstar FS Multilabel Reader. All compounds were tested in triplicate at concentrations ranging from 42.5 μM to 2.2 nM in 0.83% DMSO.
(§3) Luminescence values were converted to % Fold increase by normalizing to the average of the DMSO control and multiplying by 100. Max, min, slope and AC50 were determined by the standard four parameter fit algorithm of ActivityBase XE Runner. Compounds were evaluated with three parameters—AC50, MAX % Fold, and % Fold@1.54 μM (FIG. 1). The AC50 value for a compound is the concentration (μM) corresponding to the midway between the maximum and minimum values of the four parameter logistic curve fit (i.e., at which the % fold increase along the four parameter logistic curve fit is halfway between MAX % Fold and MIN % Fold (% Fold Midpoint)), MAX % Fold is the highest fold increase observed at any concentration of compound, and % Fold@1.54 μM is the fold increase at a compound concentration of 1.54 μM. The parameter % Fold@1.54 μM was selected to capture elements of both the AC50 and MAX % Fold and to provide a ranking based on both potency and effect. The compound concentration of 1.54 μM was chosen as one that can optimally differentiate the set of compounds based on the range of activities observed.
(§4) As set forth in Table 13 below, AC50 values (columns A, D, G) are defined as follows: ≤0.1 μM (+++); >0.1 μM and ≤1.0 μM (++); >1.0 μM and ≤40 μM (+); >40 μM (0). Max % FOLD values (columns B, E, H) are defined as follows: ≤75% (+); >75% and ≤250% (++); >250% and ≤500% (+++). % Fold@1.54 μM values (columns C, F, J) are defined as follows: ≤75% (+); >75% and ≤250% (++); >250% and ≤50000 (+++).

The target of test [2] is PKR(R510Q) (Homo sapiens, UniProt P30613, R510Q). Kind of test: Luminescence Biochemical Assay (Kinase Glo Plus), PKR R510Q mutant. The conditions noted are these: without FBP; for activation at 1.54 µM: 1.54 μM compound, read-out: AC50 LUM KGP woFBP % Fold@1.54 μM mean; for AC50: read-out: AC50 LUM KGP woFBP AC50 μM gmean; for Emax: read-out: AC50 LUM KGP woFBP MAX % FOLD mean. How it is done: as §1, §2, §3, §4
Chain of PKR(R510Q) (P30613 whole entry R510Q): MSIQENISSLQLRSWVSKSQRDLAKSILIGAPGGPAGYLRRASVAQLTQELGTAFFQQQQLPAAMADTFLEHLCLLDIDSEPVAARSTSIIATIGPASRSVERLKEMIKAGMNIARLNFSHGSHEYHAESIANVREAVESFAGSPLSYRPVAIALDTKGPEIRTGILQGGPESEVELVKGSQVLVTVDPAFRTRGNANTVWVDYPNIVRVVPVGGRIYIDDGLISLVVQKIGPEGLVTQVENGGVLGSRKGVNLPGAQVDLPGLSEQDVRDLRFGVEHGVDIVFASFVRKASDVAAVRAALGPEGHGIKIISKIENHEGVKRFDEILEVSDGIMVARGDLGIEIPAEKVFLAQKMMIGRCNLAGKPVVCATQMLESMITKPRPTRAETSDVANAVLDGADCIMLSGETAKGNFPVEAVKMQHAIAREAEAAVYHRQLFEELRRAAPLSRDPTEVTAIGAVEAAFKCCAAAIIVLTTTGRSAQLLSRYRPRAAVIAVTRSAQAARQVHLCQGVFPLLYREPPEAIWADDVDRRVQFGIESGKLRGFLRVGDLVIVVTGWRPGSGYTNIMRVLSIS

Chain of PKR(wt) (P30613 whole entry): as the sequence (P30613 whole entry R510Q) above, with Q510R counted along it

On to `O=C(c1ccc(OCC(F)(F)F)nc1)N1CC2=C(C1)CN(S(=O)(=O)c1ccc3occc3c1)C2` [Example 18-81, 5-[5-(1-Benzofuran-5-sulfonyl)-1H,2H,3H,4H,5H,6H-pyrrolo[3,4-c]pyrrole-2-carbonyl]-2-(2,2,2-trifluoroethoxy)pyridine], for which, in test [1], the activation at 1.54 µM fell in the range of 250 to 50000%; the concentration at half-maximal activity (AC50) – broadly, the midpoint of the concentration-response curve, whichever way the signal moves – lay within 0.1 to 1 µM; the Emax was 250 to 500%.

For the compound `Cc1cnc(C(=O)N2CC3=C(C2)CN(S(=O)(=O)c2ccc4occc4c2)C3)cn1` [Example 18-82, 2-[5-(1-Benzofuran-5-sulfonyl)-1H,2H,3H,4H,5H,6H-pyrrolo[3,4-c]pyrrole-2-carbonyl]-5-methylpyrazine], in test [1], the activation at 1.54 µM lay within 75 to 250%, the AC50 was in the range of 1 to 40 µM and the Emax was in the range of 75 to 250%.

For the compound `O=C(c1ccccn1)N1CC2=C(C1)CN(S(=O)(=O)c1ccc3occc3c1)C2` [Example 18-83, 2-[5-(1-Benzofuran-5-sulfonyl)-1H,2H,3H,4H,5H,6H-pyrrolo[3,4-c]pyrrole-2-carbonyl]pyridine], in test [1], the activation at 1.54 µM was in the range of 75 to 250%, the half-maximal activity concentration (AC50) lay in the range of 1 to 40 µM and the Emax was in the range of 75 to 250%.

With `Cc1cc(C(=O)N2CC3=C(C2)CN(S(=O)(=O)c2ccc4occc4c2)C3)nn1C` [Example 18-84, 3-[5-(1-Benzofuran-5-sulfonyl)-1H,2H,3H,4H,5H,6H-pyrrolo[3,4-c]pyrrole-2-carbonyl]-1,5-dimethyl-1H-pyrazole], in test [1], the activation at 1.54 µM is 75 to 250%, the AC50 lay within 1 to 40 µM and the Emax fell in the range of 75 to 250%.

`Cc1nc(C)c(C(=O)N2CC3=C(C2)CN(S(=O)(=O)c2ccc4occc4c2)C3)s1` [Example 18-85, 5-[5-(1-Benzofuran-5-sulfonyl)-1H,2H,3H,4H,5H,6H-pyrrolo[3,4-c]pyrrole-2-carbonyl]-2,4-dimethyl-1,3-thiazole]: in test [1], the activation at 1.54 µM was 75 to 250%, the AC50 is 1 to 40 µM and the Emax was in the range of 75 to 250%.

Turning to `O=C(c1cnc(C(F)(F)F)nc1)N1CC2=C(C1)CN(S(=O)(=O)c1ccc3occc3c1)C2` [Example 18-86, 5-[5-(1-Benzofuran-5-sulfonyl)-1H,2H,3H,4H,5H,6H-pyrrolo[3,4-c]pyrrole-2-carbonyl]-2-(trifluoromethyl)pyrimidine], in test [1], the activation at 1.54 µM was in the range of 75 to 250%, the AC50 fell in the range of 1 to 40 µM and the Emax fell in the range of 75 to 250%.

Take `C[C@@H](C(=O)N1CC2=C(C1)CN(S(=O)(=O)c1ccc(Cl)s1)C2)c1ccccc1` [Example 19-1, (2R)-1-{5-[(5-chlorothiophen-2-yl)sulfonyl]-1H,2H,3H,4H,5H,6H-pyrrolo[3,4-c]pyrrol-2-yl}-2-phenylpropan-1-one]: in test [2], the activation at 1.54 µM fell in the range of 75 to 250%, the AC50 was in the range of 1 to 40 µM and the Emax was 75 to 250%.

Turning to `Cc1nn(C)c(Cl)c1S(=O)(=O)N1CC2=C(CN(C(=O)[C@H](C)c3ccccc3)C2)C1` [Example 19-2, (2R)-1-{5-[(5-chloro-1,3-dimethyl-1H-pyrazol-4-yl)sulfonyl]-1H,2H,3H,4H,5H,6H-pyrrolo[3,4-c]pyrrol-2-yl}-2-phenylpropan-1-one], in test [2], the activation at 1.54 µM was 75 to 250%, the AC50 lay in the range of 1 to 40 µM and the Emax lay within 75 to 250%.

Consider `COc1ccc(CNC(=O)N2CC3=C(C2)CN(S(=O)(=O)c2cccnc2)C3)cc1` [Example 20-2, N-[(4-methoxyphenyl)methyl]-5-(pyridine-3-sulfonyl)-1H,2H,3H,4H,5H,6H-pyrrolo[3,4-c]pyrrole-2-carboxamide], for which, in test [1], the activation at 1.54 µM lay in the range of 75 to 250%, the AC50 was 0.1 to 1 µM and the Emax was in the range of 250 to 500%.

As for `COc1ccc(CNC(=O)N2CC3=C(C2)CN(S(=O)(=O)c2cccc(F)c2)C3)cc1` [Example 20-7, 5-(3-Fluorobenzenesulfonyl)-N-[(4-methoxyphenyl)methyl]-1H,2H,3H,4H,5H,6H-pyrrolo[3,4-c]pyrrole-2-carboxamide], in test [2], the activation at 1.54 µM lay within 250 to 50000%, the half-maximal activity concentration (AC50) fell in the range of 0.1 to 1 µM and the Emax lay in the range of 250 to 500%.

`COc1ccc(CNC(=O)N2CC3=C(C2)CN(S(=O)(=O)c2ccc(OC)c(OC)c2)C3)cc1` [Example 20-31, 5-(3,4-Dimethoxybenzenesulfonyl)-N-[(4-methoxyphenyl)methyl]-1H,2H,3H,4H,5H,6H-pyrrolo[3,4-c]pyrrole-2-carboxamide]: in test [2], the activation at 1.54 µM fell in the range of 75 to 250%, the AC50 lay within 1 to 40 µM and the Emax is 75 to 250%.

Consider `O=C(NCc1ccco1)N1CC2=C(C1)CN(S(=O)(=O)c1ccc3ncsc3c1)C2` [Example 21-1, 5-(Benzo[d]thiazol-6-ylsulfonyl)-N-(furan-2-ylmethyl)-3,4,5,6-tetrahydropyrrolo[3,4-c]pyrrole-2(1H)-carboxamide], for which, in test [1], the activation at 1.54 µM was 250 to 50000%, the half-maximal activity concentration (AC50) was at most 0.1 µM and the Emax fell in the range of 250 to 500%.

Turning to `O=C(NCc1ccco1)N1CC2=C(C1)CN(S(=O)(=O)c1ccc(OC(F)F)cc1)C2` [Example 21-2, 5-[4-(Difluoromethoxy)benzenesulfonyl]-N-(furan-2-ylmethyl)-1H,2H,3H,4H,5H,6H-pyrrolo[3,4-c]pyrrole-2-carboxamide], in test [1], the activation at 1.54 µM is 250 to 50000%, the AC50 was at most 0.1 µM and the Emax lay in the range of 250 to 500%.

On to `Cc1ccc(C(C)NC(=O)N2CC3=C(C2)CN(S(=O)(=O)c2ccc(OC(F)F)cc2)C3)o1` (stereo not drawn) [Example 21-3, 5-[4-(Difluoromethoxy)benzenesulfonyl]-N-[1-(5-methylfuran-2-yl)ethyl]-1H,2H,3H,4H,5H,6H-pyrrolo[3,4-c]pyrrole-2-carboxamide], for which, in test [1], the activation at 1.54 µM lay within 75 to 250%, the AC50 is 1 to 40 µM and the Emax is 250 to 500%.

For `Cc1cc(C(C)NC(=O)N2CC3=C(C2)CN(S(=O)(=O)c2ccc(OC(F)F)cc2)C3)c(C)o1` (stereo not drawn) [Example 21-4, 5-[4-(Difluoromethoxy)benzenesulfonyl]-N-[1-(2,5-dimethylfuran-3-yl)ethyl]-1H,2H,3H,4H,5H,6H-pyrrolo[3,4-c]pyrrole-2-carboxamide], in test [1], the activation at 1.54 µM was in the range of 75 to 250%, the concentration at half-maximal activity (AC50) fell in the range of 1 to 40 µM and the Emax is 250 to 500%.

Turning to `Cc1ccc(C(C)NC(=O)N2CC3=C(C2)CN(S(=O)(=O)c2ccc(OC(F)F)cc2)C3)s1` (stereo not drawn) [Example 21-7, 5-[4-(Difluoromethoxy)benzenesulfonyl]-N-[1-(5-methylthiophen-2-yl)ethyl]-1H,2H,3H,4H,5H,6H-pyrrolo[3,4-c]pyrrole-2-carboxamide], in test [1], the activation at 1.54 µM was in the range of 75 to 250%, the half-maximal activity concentration (AC50) lay within 1 to 40 µM and the Emax lay in the range of 250 to 500%.

For `O=C(OCc1cccc(F)c1)N1CC2=C(C1)CN(S(=O)(=O)c1ccc3occc3c1)C2` [Example 22-6, (3-Fluorophenyl)methyl 5-(1-benzofuran-5-sulfonyl)-1H,2H,3H,4H,5H,6H-pyrrolo[3,4-c]pyrrole-2-carboxylate], in test [1], the activation at 1.54 µM lay within 250 to 50000%, the half-maximal activity concentration (AC50) was 0.1 to 1 µM and the Emax was in the range of 250 to 500%.

With `O=C(OCc1cccnc1)N1CC2=C(C1)CN(S(=O)(=O)c1ccc3occc3c1)C2` [Example 22-7, Pyridin-3-ylmethyl 5-(1-benzofuran-5-sulfonyl)-1H,2H,3H,4H,5H,6H-pyrrolo[3,4-c]pyrrole-2-carboxylate], in test [1], the activation at 1.54 µM was in the range of 250 to 50000%, the AC50 fell in the range of 0.1 to 1 µM and the Emax was in the range of 250 to 500%.

The values are drawn from US12122778B2, “Activating pyruvate kinase R” (Novo Nordisk Health Care AG, priority 2018, dated 2024).
